From patent US20170298056A1, “SMALL MOLECULE INHIBITORS OF HIV-1 ENTRY AND METHODS OF USE THEREOF” (Dana-Farber Cancer Institute, Inc., priority 2014, published 2017)

Assays:
Type in all cases: cell-based
[1] = tested on: PBMC; assay: Viability assay (CellTiterGlo), PBMC; details: human PBMC, range of tested concentrations
Procedure: (§1) Viability Assay. As part of the secondary screen, cells were incubated for ˜20 hours in 384-well plates in a final volume of 45 μl growth medium at 37° C. The plate was equilibrated to room temperature, 15 μl of CellTiterGlo (Promega) was added to each well and luminescence was measured as described above. The viability assay with 18A was done in parallel to the viral infection assay for the same length of time. 18A was diluted using an HP D300 Digital Dispenser in a 96-well B&W isoplate and cells were added. After incubation of 26-30 hours (Cf2Th cells) or 40-44 hours (PBMC). 30 μl (Cf2Th cells) or 100 μl (PBMC) of CellTiterGlo was added and luminescence was measured as described above.

[2] = tested on: Cf2Th-CD4/CXCR4 cells; assay: Viability assay (CellTiterGlo), CD4/CXCR4-expressing target cells
Procedure: as §1

[3] = tested on: HIV-1JR-FL; assay: Infection of human PBMC by HIV-1JR-FL; details: HIV-1JR-FL infection of human PBMC
Procedure: Peripheral blood mononuclear cells (PBMC). Human blood was purchased from Research Blood Components, who obtained a consent firm from each donor, according to the American Association of Blood Banks guidelines, PBMC were isolated from the whole blood using a Ficoll-Paque gradient (Ficoll-Paque PLUS, Amersham Biosciences) and activated at concentration of 10^6 live cells/ml for 3 days in RPMI-PBMC medium (RPMI-1640 supplemented with 20% FBS, 10% IL-2 (Hemagen, Columbia, Md.), 100 μg/ml primocin (InvivoGen, San Diego, Calif.)) with 4 μg/ml phytohemagglutinin (Sigma-Aldrich, St. Louis, Mo.). In some cases, cells were frozen, thawed and activated prior to the assay.
Viral infection assay. Each test compound was serially diluted in DMSO in a 96-well B&W isoplate (PerkinElmer, Boston, Mass.) using an HP D300 Digital Dispenser, to a final volume of 450 nl. DMSO was used as a control. […] The activity of the firefly luciferase, which was used as a reporter protein in the system, was measured with a Centro LB 960 luminometer (Berthold Technologies, Oak Ridge, Tenn.). One hundred microliters of assay buffer (15 mM MgSO4, 15 mM KH2PO4/K2HPO4 pH 7.8, 1 mM ATP and 1 mM DTT) was injected to each well, followed by a 50 μl injection of 1 mM Dluciferin potassium salt (BD Pharmingen, San Jose, Calif.); luminescence was measured for 2 sec. […]

[4] = tested on: HIV-1MN27; assay: Viral infection assay, CXCR4-tropic virus, Cf2Th-CD4/CXCR4 cells; details: HIV-1MN27, Cf2Th cells expressing CD4 and CXCR4

SMILES: O=C(N/N=C/c1ccc(O)cc1)Nc1cccc2nsnc12 [Compound 18A]
- effect on viability of the cells [1]: No significant effect
- CC50 [2]: 63 µM
- IC50 [3]: 0.4 µM
- IC50 [4]: ~25 µM
